Assay results reported in ChEMBL document CHEMBL3046419, “Nematicidal activity of anion transport blockers against Meloidogyne incognita, Caenorhabditis elegans and Heterorhabditis bacteriophora” (Pest Manag Sci, 2008).
Values after ≈ are worked out from the molar mass of the structure shown. Active and inactive are the calls of the source. The calls are words filed in the database; no cut-off is given here.

How the values were obtained:
Meloidogyne incognita [1] = assay: Ovicidal activity against Meloidogyne incognita (root-knot nematode) eggs after 168 hr; format: functional, organism-based
[2] = system: Heterorhabditis bacteriophora; assay: Nematicidal activity against J3 juveniles of Heterorhabditis bacteriophora assessed as mortality at 200 mg/l after 168 hr relative to control; format: functional
Meloidogyne incognita [3] = assay: Nematicidal activity against J2 juveniles of Meloidogyne incognita (root-knot nematode) after 72 hr relative to control; format: functional
Meloidogyne incognita [4] = assay: Ovicidal activity against Meloidogyne incognita (root-knot nematode) eggs assessed as inhibition of egg hatching at 40 mg/l after 120 hr relative to control; format: functional
Meloidogyne incognita [5] = assay: Nematicidal activity against J2 juveniles of Meloidogyne incognita (root-knot nematode) assessed as mortality at 40 mg/l after 48 hr relative to control; format: functional
Meloidogyne incognita [6] = assay: Ovicidal activity against Meloidogyne incognita (root-knot nematode) eggs after 120 hr; format: functional, organism-based
Caenorhabditis elegans [7] = assay: Nematicidal activity against adult Caenorhabditis elegans N2 Bristol after 72 hr; format: functional
Caenorhabditis elegans [8] = assay: Nematicidal activity against adult Caenorhabditis elegans N2 Bristol assessed as mortality at 40 mg/l after 120 hr relative to control; format: functional
Caenorhabditis elegans [9] = assay: Nematicidal activity against adult Caenorhabditis elegans N2 Bristol assessed as mortality at 40 mg/l after 48 hr relative to control; format: functional
Caenorhabditis elegans [10] = assay: Inhibition of […] in Caenorhabditis elegans N2 Bristol assessed as increase in pharyngeal musle contraction frequency at 50 mg/l after 1 hr relative to control; format: functional
Caenorhabditis elegans [11] = assay: Nematicidal activity against adult Caenorhabditis elegans N2 Bristol assessed as mortality at 40 mg/l after 24 hr relative to control; format: functional
Meloidogyne incognita [12] = assay: Nematicidal activity against J2 juveniles of Meloidogyne incognita (root-knot nematode) after 120 hr relative to control; format: functional
Caenorhabditis elegans [13] = assay: Nematicidal activity against adult Caenorhabditis elegans N2 Bristol after 120 hr; format: functional
Caenorhabditis elegans [14] = assay: Nematicidal activity against adult Caenorhabditis elegans N2 Bristol after 48 hr; format: functional
Meloidogyne incognita [15] = assay: Nematicidal activity against J2 juveniles of Meloidogyne incognita (root-knot nematode) after 168 hr relative to control; format: functional
Meloidogyne incognita [16] = assay: Ovicidal activity against Meloidogyne incognita (root-knot nematode) eggs assessed as inhibition of egg hatching at 40 mg/l after 24 to 72 hr relative to control; format: functional; details: read-out: mortality
Caenorhabditis elegans [17] = assay: Inhibition of […] in Caenorhabditis elegans N2 Bristol assessed as increase in pharyngeal musle contraction frequency at 50 mg/l after 6 hr relative to control; format: functional, organism-based
Caenorhabditis elegans [18] = assay: Nematicidal activity against adult Caenorhabditis elegans N2 Bristol after 168 hr; format: functional
[19] = system: Bursaphelenchus xylophilus; assay: Nematicidal activity against Bursaphelenchus xylophilus assessed as mortality at 1 mg/l after 48 hr relative to control; format: functional
[20] = target: T1, Chloride channel protein clh-3 (Caenorhabditis elegans) (UniProt Q9BMK9); details: 100 uM
T1 sequence (whole entry): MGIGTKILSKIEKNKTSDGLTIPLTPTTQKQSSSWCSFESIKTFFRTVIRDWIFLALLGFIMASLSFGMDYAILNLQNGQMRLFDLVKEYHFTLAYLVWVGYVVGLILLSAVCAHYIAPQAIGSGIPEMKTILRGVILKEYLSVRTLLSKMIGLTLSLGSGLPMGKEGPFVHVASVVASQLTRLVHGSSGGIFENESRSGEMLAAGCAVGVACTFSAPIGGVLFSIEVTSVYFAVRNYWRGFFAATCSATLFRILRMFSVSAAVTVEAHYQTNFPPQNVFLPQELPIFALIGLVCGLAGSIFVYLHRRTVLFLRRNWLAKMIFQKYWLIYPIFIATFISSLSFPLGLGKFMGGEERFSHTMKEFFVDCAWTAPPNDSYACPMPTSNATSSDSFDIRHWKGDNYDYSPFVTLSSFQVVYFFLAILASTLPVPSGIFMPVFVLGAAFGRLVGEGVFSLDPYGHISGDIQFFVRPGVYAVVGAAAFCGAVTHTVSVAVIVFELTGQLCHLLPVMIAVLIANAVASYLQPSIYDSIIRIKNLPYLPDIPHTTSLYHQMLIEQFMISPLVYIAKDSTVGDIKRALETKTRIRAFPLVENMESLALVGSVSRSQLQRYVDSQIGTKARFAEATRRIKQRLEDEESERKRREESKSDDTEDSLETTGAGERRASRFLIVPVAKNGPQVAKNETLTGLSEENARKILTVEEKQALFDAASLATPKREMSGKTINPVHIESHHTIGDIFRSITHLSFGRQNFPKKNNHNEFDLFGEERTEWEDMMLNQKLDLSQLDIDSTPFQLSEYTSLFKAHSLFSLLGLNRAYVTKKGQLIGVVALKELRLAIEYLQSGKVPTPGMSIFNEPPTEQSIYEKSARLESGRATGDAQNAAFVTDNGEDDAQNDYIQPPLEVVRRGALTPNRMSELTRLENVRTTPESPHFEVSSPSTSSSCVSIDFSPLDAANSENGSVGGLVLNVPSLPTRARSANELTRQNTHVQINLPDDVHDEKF
Description: Inhibition of CECLC-3 in Caenorhabditis elegans oocyte membrane at 100 uM

[21] = system: Heterorhabditis bacteriophora; assay: Nematicidal activity against J3 juveniles of Heterorhabditis bacteriophora assessed as mortality at < 200 mg/l; format: functional, organism-based
[22] = system: Heterorhabditis bacteriophora; assay: Nematicidal activity against J3 juveniles of Heterorhabditis bacteriophora assessed as mortality at 200 mg/l after 24 hr relative to control; format: functional
Caenorhabditis elegans [23] = assay: Nematicidal activity against adult Caenorhabditis elegans after 24 hr; format: functional
Caenorhabditis elegans [24] = assay: Nematicidal activity against J4 juvenile of Caenorhabditis elegans after 24 hr; format: functional

O=S(=O)(O)c1cc(N=C=S)ccc1/C=C/c1ccc(N=C=S)cc1S(=O)(=O)O
EC50 (Meloidogyne incognita [1]): 23.4 mg/L (≈ 51.6 µM) | mortality at 200 µg/mL [2]: < 15% | LC50 (Meloidogyne incognita [3]): 15.4 mg/L (≈ 33.8 µM) | inhibition at 40 µg/mL (Meloidogyne incognita [4]): 50% | mortality at 40 µg/mL (Meloidogyne incognita [5]): < 50% | EC50 (Meloidogyne incognita [6]): 29.1 mg/L (≈ 64.1 µM) | LC50 (Caenorhabditis elegans [7]): 8.9 mg/L (≈ 19.6 µM) | mortality at 40 µg/mL (Caenorhabditis elegans [8]): 100% | mortality at 40 µg/mL (Caenorhabditis elegans [9]): > 50% | inhibition at 50 µg/mL (Caenorhabditis elegans [10]): 20% | mortality at 40 µg/mL (Caenorhabditis elegans [11]): < 50% | LC50 (Meloidogyne incognita [12]): 7.48 mg/L (≈ 16.5 µM) | LC50 (Caenorhabditis elegans [13]): 4.46 mg/L (≈ 9.81 µM) | LC50 (Caenorhabditis elegans [14]): 29.6 mg/L (≈ 65.2 µM) | LC50 (Meloidogyne incognita [15]): 4.46 mg/L (≈ 9.81 µM) | inhibition of egg hatching at 40 µg/mL (Meloidogyne incognita [16]): < 50% | inhibition (Caenorhabditis elegans [17]): inactive | LC50 (Caenorhabditis elegans [18]): 3.14 mg/L (≈ 6.91 µM)

COc1ccc(/C=C/c2ccccc2O)cc1 [2-hydroxy-4'-methoxystilbene]
mortality at 1 µg/mL [19]: 95%

O=C(O)c1cc([N+](=O)[O-])ccc1NCCCc1ccccc1 [5-NITRO-2-PHENYLPROPYLAMINOBENZOIC ACID [NPPB]]
EC50 (Meloidogyne incognita [1]): 34.1 mg/L (≈ 113 µM) | mortality at 200 µg/mL [2]: < 15% | LC50 (Meloidogyne incognita [3]): 20.1 mg/L (≈ 66.9 µM) | inhibition at 40 µg/mL (Meloidogyne incognita [4]): 50% | mortality at 40 µg/mL (Meloidogyne incognita [5]): < 50% | EC50 (Meloidogyne incognita [6]): 46.5 mg/L (≈ 155 µM) | LC50 (Caenorhabditis elegans [7]): 15.9 mg/L (≈ 52.8 µM) | mortality at 40 µg/mL (Caenorhabditis elegans [8]): 100% | mortality at 40 µg/mL (Caenorhabditis elegans [9]): > 50% | inhibition at 50 µg/mL (Caenorhabditis elegans [10]): 20% | mortality at 40 µg/mL (Caenorhabditis elegans [11]): < 50% | LC50 (Meloidogyne incognita [12]): 8.09 mg/L (≈ 26.9 µM) | LC50 (Caenorhabditis elegans [13]): 7.44 mg/L (≈ 24.8 µM) | LC50 (Caenorhabditis elegans [14]): 38.4 mg/L (≈ 128 µM) | LC50 (Meloidogyne incognita [15]): 5.27 mg/L (≈ 17.5 µM) | inhibition of egg hatching at 40 µg/mL (Meloidogyne incognita [16]): < 50% | inhibition (Caenorhabditis elegans [17]): inactive | LC50 (Caenorhabditis elegans [18]): 4.56 mg/L (≈ 15.2 µM) | inhibition [20]: 90%

O=C(O)c1c2ccccc2cc2ccccc12 [ANTHRACENE-9-CARBOXYLIC ACID]
EC50 (Meloidogyne incognita [1]): 48 mg/L (≈ 216 µM) | mortality at 200 µg/mL [2]: < 15% | LC50 (Meloidogyne incognita [3]): 26.8 mg/L (≈ 120 µM) | inhibition at 40 µg/mL (Meloidogyne incognita [4]): < 50% | mortality at 40 µg/mL (Meloidogyne incognita [5]): < 50% | LC50 (Caenorhabditis elegans [7]): 17.8 mg/L (≈ 80 µM) | mortality at 40 µg/mL (Caenorhabditis elegans [8]): 100% | mortality at 40 µg/mL (Caenorhabditis elegans [9]): 45% | inhibition at 50 µg/mL (Caenorhabditis elegans [10]): 20% | mortality at 40 µg/mL (Caenorhabditis elegans [11]): < 50% | LC50 (Meloidogyne incognita [12]): 11.2 mg/L (≈ 50.6 µM) | LC50 (Caenorhabditis elegans [13]): 8.44 mg/L (≈ 38 µM) | LC50 (Caenorhabditis elegans [14]): 42.7 mg/L (≈ 192 µM) | LC50 (Meloidogyne incognita [15]): 6.27 mg/L (≈ 28.2 µM) | inhibition of egg hatching at 40 µg/mL (Meloidogyne incognita [16]): < 50% | inhibition (Caenorhabditis elegans [17]): inactive | LC50 (Caenorhabditis elegans [18]): 5.35 mg/L (≈ 24.1 µM)

CCOP(=S)(OCC)Oc1nc(Cl)c(Cl)cc1Cl [CHLORPYRIFOS]
mortality at 200 µg/mL [2]: < 15% | Activity [21]: Active | mortality at 200 µg/mL [22]: 100%

C[C@@]1(C2CCCC2)Cc2cc(OCCC(=O)O)c(Cl)c(Cl)c2C1=O [INDANYLOXYACETIC ACID]
inhibition (Caenorhabditis elegans [17]): inactive

CC(C)c1c(O)cc(/C=C/c2ccccc2)cc1O [TAPINAROF]
LC50 (Caenorhabditis elegans [23]): 50 mg/L (≈ 197 µM) | LC50 (Caenorhabditis elegans [24]): 50 mg/L (≈ 197 µM)
